Results from patent US20100240746A1, “STEREOISOMERS OF TRICYCLODECAN-9-YL-XANTHOGENATE” (LUMAVITA AG, priority 2007, published 2010).
Converted amounts (≈) assume the structure as drawn. “Also recorded” adds a separate entry of the source.

Tests used:
[1] = test system: HPV-31 specific RNA in HPV-31-infected CIN612 9E keratinocytes; experiment: Short-term study, inhibition of HPV-31 specific RNA expression (Northern Blot); format: cell-based, human papilloma virus; conditions: Human papillomavirus, Keratinocyte; 72 hrs, 37° C.
Experimental: The inhibitory activities of optically active (−)-enantiomer 1A against human papilloma virus were evaluated using HPV-31-infected CIN612 9E keratinocytes (Meyers et al., Science 1992, 257, 971-973).
Effect on HPV-31 specific DNA and RNA. HPV-31 infected cells (3×10^6) were dispensed into 14.5 cm dishes containing fresh E culture medium and 1×10^6 mitomycin C-treated J2 3T3 fibroblast feeders. After 6 hrs, fresh medium containing 0.85 g/L NaHCO3 and a test compound at a series of concentrations (0, 0.5, 1, 2, 4, 8, 16, and 32 μg/mL) were added. All samples were tested in duplicates at each concentration. After incubation at 37° C. for 72 hrs, the feeder cells were removed with 4 mM EDTA, and DNA and RNA was then isolated. The isolated DNA and RNA were analyzed in Southern and Northern Blot gels for HPV-31 specific sequences. Human A431 epithelial cancer cells were used as HPV-uninfected negative control. X-ray films were scanned and optical densities of HPV-31 specific DNA and major mRNA species were integrated.
Dose response curves were established by plotting integrated values against the concentrations of the test compound.

CIN 612 9E cells = experiment: Long-term study, cell morphology; format: cell-based, human papilloma virus; conditions: 10 μg/mL, after five passages
Experimental: HPV-31 infected cells (3×10^6) were dispensed into 14.5 cm dishes containing fresh E medium and 1×10^6 cells of mitomycin C-treated 3T3 fibroblast feeders. The dishes were incubated in a CO2 incubator under 5% CO2 at 37° C. in 100% humidity. Human A431 epithelial cancer cells were used as HPV-uninfected negative controls. After 6 hr incubation, the cell culture medium was removed and fresh E medium containing 0.85 g/L NaHCO3 and a test compound at concentrations of 10 and 3.3 μg/mL, or control (interferon γ at 200 IU/mL) were added. For each concentration, 4 dishes were prepared. The dishes were incubated at 37° C. in a CO2 incubator. The culture medium was replaced to new E medium containing each concentration of the test compound or control in every 72 hrs. After seven days, or when untreated cells became confluent, one dish of each group was harvested for DNA/RNA extraction, followed by Southern/Northern Blot analysis; and one dish was trypsinized, cell number were determined and cells were seeded in three new dishes, treated and cultured as described above. This procedure was repeated for 9 passages. During these passages, morphology of cells and cell density were monitored.

[2] = test system: Herpes simplex virus type-2 (HSV-2); experiment: Inhibition of HSV-2 (plaque assay; Calu-6 infected, RITA cells for plaques); format: cell-based
Experimental: Calu-6 cells and RITA cells were grown in DMEM cell culture medium containing 10% fetal calf serum in CO2 incubator under 5% CO2 at 37° C. with 100% humidity.
For HSV-2 inhibition, Calu-6 cells were seeded in 96 well plates at a density of 3×10^6 cells per plate in the DMEM cell culture medium. The plates were incubated at 37° C. in the presence of 5% CO2 for 24 hr. The DMEM cell culture medium in the plates was removed and the cells were infected with Herpes simplex virus type-2 at 50 plaque forming units per well. After incubation at 37° C. for 60 min, test compounds in DMEM cell culture medium at a series of concentrations were added. The plates were incubated at 37° C. in the presence of 5% CO2 for 48 hr. The plates were frozen at −20° C. prior to further analysis. After thawing at room temperature, supernatants containing infectious virus particles were prepared by centrifuging the supernatant from each well at 18,000 g at 4° C. for 5 min. The supernatant was further diluted before assay.
RITA cells were seeded in 24 well Linbra plates at a density of 4×10^6 cells per plate in 2 mL of DMEM cell culture medium. The plates were incubated at 37° C. in the presence of 5% CO2 for 24 hr. After the removal of the cell culture medium, 0.1 mL of the diluted supernatants was added and the plates were incubated at 37 C for 1 hr. DMEM cell medium containing 10% fetal calf serum and 0.5% methyl cellulose was added and the plates were incubated at 37 for 48 hr. The plates were then washed with PBS, fixed with 3% formaldehyde solution containing 0.9% NaCl for 1 min, washed by water for 10 sec, and dried overnight. For detection, the plates were then stained with crystal violet solution for 5 min at room temperature, washed 5 times with water, and dried at room temperature overnight. The number of plaques was determined macroscopically. The number of plaques per well was then multiplied with the dilution factor. Dose response curves were obtained by plotting the number of plaques/0.1 mL against compound concentration. The therapeutic index was also calculated for each compound by dividing LD50 with IC50.

With S=C(S)OC1CC2CC1C1CCCC21 (single isomer, unassigned; (-)) [(−)-Enantiomer 1A, (−)-O-exo/C-exo-tricyclo[5.2.1.0^2,6]-dec-9-yl-xanthic acid] the IC50 [1] was 10.7 µg/mL (≈ 46.9 µM), the morphology of cells (CIN 612 9E cells) was “notable change in the morphology; also recorded: growing more organized like untransformed keratinocytes; also recorded: contact inhibited when cultures grew to confluency; also recorded: acquired a flat round shape” and the IC50 ([2]; Calu-6 cells, 48 hr, 50 plaque forming units per well) was 9.08 ± 3.40 µg/mL (≈ 39.8 µM). The “Therapeutic Index” value ([2]; LD50 (Calu-6) divided by IC50 (HSV-2), 2880 min) was 10.4.
